Literature values as cited in US20070155664A1, “Parathyroid hormone (pth) containing pharmaceutical compositions for oral use” (Nycomed Danmark A/S, priority 2003, published 2007).

Legend:
pre-menopausal women = conditions: 1200 mg calcium supplements daily, three menstrual cycles; placebo 48%
postmenopausal women = conditions: calcium supplementation

Structure (SMILES): [Ca+2] [calcium]
- women with PMS related symptoms (pre-menopausal women): 30%
- reduced bone loss, on average (postmenopausal women): about 1 % year
- oral administered dose absorbed (oral): 20-33%
- absorption efficiency (young adult, on average): about 30%
